# Patent publication US5955481A, “Pyridine type thiazolidines” (Nissan Chemical Industries, Ltd., priority 1994, dated 1999)
# What was measured:
# KK mouse = test: Measurement of Hypoglycemic Effect, KK mouse; assay type: in vivo; settings: for % decrease (percentage of reducing blood glucose): KK mouse, 30 mg/kg, oral, 24 hours after administration
# Method: (§1) KK mouse and KKAy mouse, NIDDM models (male, 6-7 weeks old) (Nakamura, Proc. Jpn. Acad. 38, 348-352, 1962; Iwatsuka et al. Endocrinol Jpn, 17, 23-35, 1970) were purchased from Nihon Clea. They were allowed free access to high-calories' chow (CMF, Oriental Yeast) and water. Around 40 g-weighted mice were examined.
# (§2) Blood (20 μl) collected from the retro-orbital sinus was diluted in 60 units heparin sodium-solution and was centrifuged in a microfuge. The supernatant was assayed. The glucose concentration was determined by glucose oxidase method (Glucose Analyzer II, Beckman).
# (§3) All test-compounds suspended in 0.5% carboxy-methyl cellulose (CMC)-saline were orally administered in mice. Before and 24 hours after the administration, blood was collected from the retro-orbital sinus, and a blood glucose value was measured in the above-mentioned manner. The hypoglycemic activity was expressed by the percentage of reducing blood glucose calculated before and 24 hours after the administration.
# KKA^y mouse = test: Measurement of Hypoglycemic Effect, KKAy mouse; assay type: in vivo; settings: oral, 24 hours after administration, read-out: % decrease (percentage of reducing blood glucose)
# Method: as §1, §2, §3
# [1] = system: bovine serum albumin (BSA); test: Measurement of Anti-Glycation Effect; assay type: biochemical; settings: for % decrease (anti-glycation effect, fluorescence per mg protein, percentage of the control): 5% BSA-0.5M G6P, 37° C., 10 day-incubation; for anti-glycation activities (in words): Test Example 2
# Method: Because glycated protein is fluorescent, the amount of glycated protein can be determined using fluorescence, according to the previous reports (Doi et al., Proc. Natl. Acad. Sci. U.S.A., 89, 2873-2877, 1992: Mitsuhashi et al., Diabetes, vol. 42, 826-832, 1993). The experimental procedure was modified as follows. Five percent of bovine serum albumin (BSA) containing 0.5M glucose-6-phosphate-2Na (5% BSA-0.5M G6P) was filtration-sterilized (with 0.45 μm-pore size filter) and was incubated at 37° C.; positive control was incubated with 1% dimethyl sulfoxide (DMSO) at 37° C.; blank was incubated at 4° C. All test-compounds dissolved in DMSO (final concentration of DMSO was less than 1%) were added in 5% BSA-0.5M G6P. After 10 day-incubation 5% BSA-0.5M G6P with a compound, positive control and blank were dialyzed against 2L phosphate buffered saline for 24 hours (fractional molecular weight: 12,000-14,000).The dialyzed solution was diluted in water 4 times and was determined the fluorescence (ex. 370 nm-em. 440 nm). The protein concentration of the dialyzed solution (10 μL of which was diluted to 20 times with distilled water) was determined by Lowry-method and the fluorescence was expressed per mg protein. Control (100%) was positive control minus blank. Anti-glycation effect was calculated as the percentage of the control.
# [2] = system: AGE protein on arterial walls; settings: rat suffering from diabetes; Science, vol. 232, p. 1629 (1986); cited from earlier work
SMILES,% decrease (percentage of reducing blood glucose) (KK mouse),inhibition in vivo at 30 mg/kg (KKA^y mouse),"% decrease (anti-glycation effect, fluorescence per mg protein, percentage of the control) ([1]; 100 μg/ml)",also measured
Cc1oc(-c2ccccc2)nc1CCC(=O)c1ccc(CC2SC(=O)NC2=O)cc1 (stereo not shown) [CP-86325],39.4%,39.5%,10.3%,anti-glycation activities (in words) [1]: did not exhibit anti-glycation activities
Cc1c(C)c2c(c(C)c1O)CCC(C)(COc1ccc(CC3SC(=O)NC3=O)cc1)O2 (stereo not shown) [CS-045],24.2%,-3%,10.1%,anti-glycation activities (in words) [1]: did not exhibit anti-glycation activities
"Cc1oc(-c2ccccc2)nc1C(=O)COc1ccc(C=C2SC(=O)NC2=O)nc1 [I-1a-1, 5-((5-(2-oxo-2-(2-phenyl-5-methyl-4-oxazolyl)ethoxy)-2-pyridyl)methylidene)thiazolidin-2,4-dione]",48.9%,48.6%,42.3%,
COCOc1ccc(C=C2SC(=O)NC2=O)nc1 [I-1a-2],,,24.1%,
O=C1NC(=O)C(=Cc2ccc(OCc3ccccc3)cn2)S1 [I-1a-3],,,34.1%,
Cc1oc(-c2ccc(-c3ccccc3)cc2)nc1C(O)COc1ccc(C=C2SC(=O)NC2=O)nc1 (stereo not shown) [I-1a-43],,47.3%,,
"Cc1oc(-c2ccccc2)nc1C(=O)COc1ccc(CC2SC(=O)NC2=O)nc1 (stereo not shown) [I-2a-1, 5-((5-(2-oxo-2-(2-phenyl-5-methyl-4-oxazolyl)ethoxy)-2-pyridyl)methyl)thiazolidin-2,4-dione]",65.1%,50%,,
COCOc1ccc(CC2SC(=O)NC2=O)nc1 (stereo not shown) [I-2a-2],,39.9%,,
Cc1cccc(-c2nc(C(=O)COc3ccc(CC4SC(=O)NC4=O)nc3)c(C)o2)c1 (stereo not shown) [I-2a-5],,47.7%,,
Cc1oc(-c2ccc(F)cc2)nc1C(O)COc1ccc(CC2SC(=O)NC2=O)nc1 (stereo not shown) [I-2a-30],,37.2%,,
Cc1oc(-c2ccc(-c3ccccc3)cc2)nc1C(O)COc1ccc(CC2SC(=O)NC2=O)nc1 (stereo not shown) [I-2a-31],,52.2%,,
Cc1ccc(-c2nc(C(O)COc3ccc(CC4SC(=O)NC4=O)nc3)c(C)o2)cc1 (stereo not shown) [I-2a-32],,35.4%,,
N=C(N)NN [aminoguanidine],,,,"% decrease (anti-glycation effect, fluorescence per mg protein, percentage of the control) ([1]; 1 mM): 21.4%; % decrease (anti-glycation effect, fluorescence per mg protein, percentage of the control) ([1]; 10 mM): 48.9%; % decrease (anti-glycation effect, fluorescence per mg protein, percentage of the control) ([1]; 100 mM): 80.2%; prevention of formation of AGE protein on arterial walls (in words) [2]: prevents formation of AGE protein on arterial walls"
COc1ccc(Cl)cc1C(=O)NCCc1ccc(S(=O)(=O)NC(=O)NC2CCCCC2)cc1 [glibenclamide],-3.6%,-2.5%,,"hypoglycemic activity (in words) (KK mouse; Test Example 1, KK and KKAy mouse, 30 mg/kg oral): did not exhibit hypoglycemic activity"
